Where a SMILES comes first, the peptide text is derived from it. Bridges are numbered along the chain shown (N, C = ends). Where no end group is shown, it is not given here.

These results are taken from patent publication EP3233102B1, “USE OF AN ANTIMICROBIAL PEPTIDE TO INDUCE CELL DEATH IN BREAST CANCER” (Bolkent, Sehnaz, priority 2014, dated 2024).

The subject of series [1] is emryonic neurons of rats. As to conditions: cited from earlier work.
Series [2] has as its system human glioblastoma cells. Particulars: cited from earlier work.
Series [3] relates to MCF-7 cells. Nature of the series: Lactate dehydrogenase (LDH) release cytotoxicity assay. As to conditions: 24 hours, FIG. 4. It counts as cell-based. From the text:
(§1) The lactate dehydrogenase (LDH) release assay was used to measure cytotoxicity. Lactate dehydrogenase (LDH) is a stable cytoplasmic enzyme present in most cells. During damage to or rupture of cell cytoplasmic membranes, LDH is released from cells and into the surrounding cell culture supernatant. Quantitation of LDH in cell culture supernatant was used to measure cellular toxicity levels.
Both MCF-7 and control (normal) cells were detached from 75 cm^2 flasks with trypsin-EDTA and centrifuged. Cells were resuspended in cell culture media and diluted to a concentration of 50 cells/ µl 100 µl of cell suspension was transferred to each well of a 96-well plate. Three wells of cells were used for each concentration of cyclic dodecapeptide. The asay was performed in triplicates. […] The media of the experiment groups was replaced with media containing 50, 100, or 200 µg/ml of cyclic dodecapeptide. After the cells were incubated with cyclic dodecapeptide for 24 hours, the activity of released lactate dehydrogenase was detected following manufacture prototol. 5 µl of lysis solution (2% Triton-X-100) was added to each well. The plate was incubated at 37 °C for 15 minutes. 100 µ ? of freshly prepared reaction mixture containing catalyst (Diaphoresis NAD^+mixture) and dye solution (iodotetrazolium chloride (INT) and sodium lactate) was added to each well. After incubation in dark at room temperature for 30 minutes, the reaction was stopped by adding 50 µl of stopping solution (IN HCl) to each well. Plates were shaken in an orbital shaker for 10 seconds. Spectrophotometric absorbance was measured at 490 nm test wavelength and 690 nm reference wavelength. The results were determined as % cytotoxicity. The average absorbance value of the negative control group (no cyclic dodecapeptide added) was subtracted from each of the experiment groups. […] The control and experiment groups were compared relative to the positive control group, and their cytotoxicities were measured by using the formula below: % Cytotoxicity = ([Experiment−NegativeControl])/([PositiveControl−NegativeControl])∗100 [formula]

Series [4] relates to MDA-MB 231 cells. Described as above. It counts as cell-based. Particulars: 24 hours, FIG. 5.
For series [5], the system named is control (normal) cells. Description: Lactate dehydrogenase (LDH) release cytotoxicity assay, control group. The series is classed as cell-based.
Source text: as §1
Both MCF-7 and control (normal) cells were detached from 75 cm^2 flasks with trypsin-EDTA and centrifuged. Cells were resuspended in cell culture media and diluted to a concentration of 50 cells/ µl 100 µl of cell suspension was transferred to each well of a 96-well plate. Three wells of cells were used for each concentration of cyclic dodecapeptide. The asay was performed in triplicates. […] The media of the experiment groups was replaced with media containing 50, 100, or 200 µg/ml of cyclic dodecapeptide. After the cells were incubated with cyclic dodecapeptide for 24 hours, the activity of released lactate dehydrogenase was detected following manufacture prototol. 5 µl of lysis solution (2% Triton-X-100) was added to each well. The plate was incubated at 37 °C for 15 minutes. 100 µ ? of freshly prepared reaction mixture containing catalyst (Diaphoresis NAD^+mixture) and dye solution (iodotetrazolium chloride (INT) and sodium lactate) was added to each well. After incubation in dark at room temperature for 30 minutes, the reaction was stopped by adding 50 µl of stopping solution (IN HCl) to each well. Plates were shaken in an orbital shaker for 10 seconds. Spectrophotometric absorbance was measured at 490 nm test wavelength and 690 nm reference wavelength. The results were determined as % cytotoxicity. The average absorbance value of the negative control group (no cyclic dodecapeptide added) was subtracted from each of the experiment groups. A positive control group for maximum LDH release was used as 100% cytotoxicity. The control and experiment groups were compared relative to the positive control group, and their cytotoxicities were measured by using the formula below: % Cytotoxicity = ([Experiment−NegativeControl])/([PositiveControl−NegativeControl])∗100 [formula]

Consider “bactenecin (RLCRIVVIRVCR; disulfide 3-11; UniProt P22226 144-155, looked up)”, for which the cytotoxicity result in series [1] and in series [2] was “strongly cytotoxic” throughout.

For `CC[C@H](C)[C@@H]1NC(=O)[C@H](CCCNC(=N)N)NC(=O)[C@@H](NC(=O)[C@H](CC(C)C)NC(=O)[C@@H](N)CCCNC(=N)N)CSSC[C@@H](C(=O)N[C@@H](CCCNC(=N)N)C(=O)O)NC(=O)[C@H](C(C)C)NC(=O)[C@H](CCCNC(=N)N)NC(=O)[C@H]([C@@H](C)CC)NC(=O)[C@H](C(C)C)NC(=O)[C@H](C(C)C)NC1=O` [cyclic dodecapeptide, RLCRIVVIRVCR] (H-RLCRIVVIRVCR-OH; disulfide 3-11), the “release of lactate dehydrogenase, % cytotoxicity, MCF-7 group” value is on record as 20.11±8.3% in series [3] (50 µg/ml), 76.22±4.1% in series [3] (100 µg/ml) and 61.55+4% in series [3] (200 µg/ml). For the same compound, the “release of lactate dehydrogenase, % cytotoxicity, MDA-MB 231 group” value in series [4] (50 µg/ml) amounted to 19.1±1.9%; in series [4] (100 µg/ml) it was 17.1±2.2%; in series [4] (200 µg/ml) it was 33.93±9%. Also, the “release of lactate dehydrogenase, % cytotoxicity, control group” value worked out at 12.8±1.9% in series [5] (50 µg/ml, FIG. 4 (control group to MCF-7)); 3.9±0.9% in series [5] (50 µg/ml, FIG. 5 (control group to MDA-MB 231)); 13.36±1.5% in series [5] (100 µg/ml, FIG. 4 (control group to MCF-7)); 4.73±1.7% in series [5] (100 µg/ml, FIG. 5 (control group to MDA-MB 231)); 12.07±1.4% in series [5] (200 µg/ml, FIG. 4 (control group to MCF-7)); 4.8±1.3% in series [5] (200 µg/ml, FIG. 5 (control group to MDA-MB 231)).
